From ChEMBL document CHEMBL3991601, “The target landscape of clinical kinase drugs” (Science, 2017)
Active and inactive are the calls of the source.

Legend:
[1] = biological target: Guanine nucleotide-binding protein G(i) subunit alpha-2 (Homo sapiens, UniProt P04899)
[2] = biological target: T1, Cyclin-dependent kinase-like 5 (Homo sapiens, UniProt O76039)
T1 sequence (O76039 whole entry): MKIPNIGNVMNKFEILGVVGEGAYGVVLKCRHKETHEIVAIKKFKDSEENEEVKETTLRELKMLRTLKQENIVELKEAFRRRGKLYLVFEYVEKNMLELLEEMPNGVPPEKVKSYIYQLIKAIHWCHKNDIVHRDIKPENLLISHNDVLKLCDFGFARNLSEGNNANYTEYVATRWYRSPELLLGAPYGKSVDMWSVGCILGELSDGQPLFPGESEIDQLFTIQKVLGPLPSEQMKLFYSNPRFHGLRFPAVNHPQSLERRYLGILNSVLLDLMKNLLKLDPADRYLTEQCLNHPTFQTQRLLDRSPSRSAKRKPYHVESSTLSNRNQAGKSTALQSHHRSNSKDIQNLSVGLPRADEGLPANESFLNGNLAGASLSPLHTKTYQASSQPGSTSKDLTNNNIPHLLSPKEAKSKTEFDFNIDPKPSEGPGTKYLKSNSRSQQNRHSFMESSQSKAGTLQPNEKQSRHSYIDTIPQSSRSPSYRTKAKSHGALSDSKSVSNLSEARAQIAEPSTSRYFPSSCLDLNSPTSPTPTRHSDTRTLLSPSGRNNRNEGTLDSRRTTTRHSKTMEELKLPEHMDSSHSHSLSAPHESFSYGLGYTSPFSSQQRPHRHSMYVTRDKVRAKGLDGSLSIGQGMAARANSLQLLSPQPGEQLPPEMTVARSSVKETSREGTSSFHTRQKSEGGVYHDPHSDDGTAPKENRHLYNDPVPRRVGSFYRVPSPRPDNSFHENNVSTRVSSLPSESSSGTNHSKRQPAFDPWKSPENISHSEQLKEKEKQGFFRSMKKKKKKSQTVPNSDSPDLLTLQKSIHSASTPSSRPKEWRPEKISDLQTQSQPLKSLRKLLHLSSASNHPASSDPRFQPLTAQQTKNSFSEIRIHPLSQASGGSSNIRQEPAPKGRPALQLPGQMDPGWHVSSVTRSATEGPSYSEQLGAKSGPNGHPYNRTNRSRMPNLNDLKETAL

[3] = biological target: T2, Inhibitor of nuclear factor kappa-B kinase subunit epsilon (Homo sapiens, UniProt Q14164)
T2 sequence (Q14164 whole entry): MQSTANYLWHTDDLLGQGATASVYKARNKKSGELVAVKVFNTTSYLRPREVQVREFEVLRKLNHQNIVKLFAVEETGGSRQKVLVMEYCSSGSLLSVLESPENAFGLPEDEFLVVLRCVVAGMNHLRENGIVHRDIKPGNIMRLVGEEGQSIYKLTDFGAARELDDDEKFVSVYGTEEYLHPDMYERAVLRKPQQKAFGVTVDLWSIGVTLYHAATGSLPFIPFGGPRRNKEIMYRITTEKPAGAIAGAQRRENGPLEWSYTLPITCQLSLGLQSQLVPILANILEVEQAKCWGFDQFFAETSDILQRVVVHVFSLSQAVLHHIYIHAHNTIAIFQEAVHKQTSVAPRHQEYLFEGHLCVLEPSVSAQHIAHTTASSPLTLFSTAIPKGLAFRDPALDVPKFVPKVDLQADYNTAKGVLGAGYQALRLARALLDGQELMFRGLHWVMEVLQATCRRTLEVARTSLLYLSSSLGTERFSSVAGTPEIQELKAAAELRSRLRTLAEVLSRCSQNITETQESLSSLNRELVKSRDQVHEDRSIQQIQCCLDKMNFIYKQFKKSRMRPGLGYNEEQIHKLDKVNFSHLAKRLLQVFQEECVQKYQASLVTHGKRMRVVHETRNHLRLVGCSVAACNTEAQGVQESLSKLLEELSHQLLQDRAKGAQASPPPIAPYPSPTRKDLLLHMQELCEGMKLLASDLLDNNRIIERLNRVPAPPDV

[4] = biological target: Hepatocyte growth factor receptor (Homo sapiens, UniProt P08581)
Hepatocyte growth factor receptor, sequence (P08581 whole entry): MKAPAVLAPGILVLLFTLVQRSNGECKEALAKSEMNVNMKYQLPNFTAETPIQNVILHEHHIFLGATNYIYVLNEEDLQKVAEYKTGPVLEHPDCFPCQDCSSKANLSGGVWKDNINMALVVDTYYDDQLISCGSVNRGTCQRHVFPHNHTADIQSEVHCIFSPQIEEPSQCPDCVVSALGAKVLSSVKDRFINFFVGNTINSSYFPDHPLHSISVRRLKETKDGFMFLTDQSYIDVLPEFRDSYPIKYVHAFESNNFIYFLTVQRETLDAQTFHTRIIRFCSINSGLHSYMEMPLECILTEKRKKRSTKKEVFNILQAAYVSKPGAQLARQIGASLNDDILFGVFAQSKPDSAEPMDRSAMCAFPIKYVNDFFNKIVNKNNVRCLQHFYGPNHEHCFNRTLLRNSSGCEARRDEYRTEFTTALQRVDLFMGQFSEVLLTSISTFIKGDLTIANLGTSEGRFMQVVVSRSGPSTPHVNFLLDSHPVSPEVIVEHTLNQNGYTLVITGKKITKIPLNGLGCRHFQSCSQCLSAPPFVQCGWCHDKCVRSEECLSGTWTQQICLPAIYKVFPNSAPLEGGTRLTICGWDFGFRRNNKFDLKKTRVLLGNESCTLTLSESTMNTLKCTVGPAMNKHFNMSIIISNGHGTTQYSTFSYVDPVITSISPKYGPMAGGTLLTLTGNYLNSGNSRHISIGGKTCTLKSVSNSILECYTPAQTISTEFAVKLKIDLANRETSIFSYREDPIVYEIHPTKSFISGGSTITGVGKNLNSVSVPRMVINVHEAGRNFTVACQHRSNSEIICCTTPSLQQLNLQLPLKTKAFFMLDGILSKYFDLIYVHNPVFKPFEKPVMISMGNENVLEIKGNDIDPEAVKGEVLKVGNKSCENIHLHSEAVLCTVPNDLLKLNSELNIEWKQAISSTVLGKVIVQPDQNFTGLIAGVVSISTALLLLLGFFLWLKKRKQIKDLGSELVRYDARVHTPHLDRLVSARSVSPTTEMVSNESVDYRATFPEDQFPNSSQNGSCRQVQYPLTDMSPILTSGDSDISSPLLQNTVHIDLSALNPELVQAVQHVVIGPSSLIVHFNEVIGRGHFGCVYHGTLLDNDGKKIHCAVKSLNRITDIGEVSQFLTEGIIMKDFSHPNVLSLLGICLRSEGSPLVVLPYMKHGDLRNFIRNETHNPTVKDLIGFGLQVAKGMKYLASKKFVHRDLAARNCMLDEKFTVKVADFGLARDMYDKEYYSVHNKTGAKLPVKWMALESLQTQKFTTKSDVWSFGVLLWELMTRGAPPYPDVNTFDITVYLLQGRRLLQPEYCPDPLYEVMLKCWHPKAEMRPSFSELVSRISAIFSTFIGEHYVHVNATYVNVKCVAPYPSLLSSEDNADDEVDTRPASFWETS

[5] = biological target: Serine/threonine-protein kinase MRCK gamma (Homo sapiens, UniProt Q6DT37)
Serine/threonine-protein kinase MRCK gamma, sequence (Q6DT37 whole entry): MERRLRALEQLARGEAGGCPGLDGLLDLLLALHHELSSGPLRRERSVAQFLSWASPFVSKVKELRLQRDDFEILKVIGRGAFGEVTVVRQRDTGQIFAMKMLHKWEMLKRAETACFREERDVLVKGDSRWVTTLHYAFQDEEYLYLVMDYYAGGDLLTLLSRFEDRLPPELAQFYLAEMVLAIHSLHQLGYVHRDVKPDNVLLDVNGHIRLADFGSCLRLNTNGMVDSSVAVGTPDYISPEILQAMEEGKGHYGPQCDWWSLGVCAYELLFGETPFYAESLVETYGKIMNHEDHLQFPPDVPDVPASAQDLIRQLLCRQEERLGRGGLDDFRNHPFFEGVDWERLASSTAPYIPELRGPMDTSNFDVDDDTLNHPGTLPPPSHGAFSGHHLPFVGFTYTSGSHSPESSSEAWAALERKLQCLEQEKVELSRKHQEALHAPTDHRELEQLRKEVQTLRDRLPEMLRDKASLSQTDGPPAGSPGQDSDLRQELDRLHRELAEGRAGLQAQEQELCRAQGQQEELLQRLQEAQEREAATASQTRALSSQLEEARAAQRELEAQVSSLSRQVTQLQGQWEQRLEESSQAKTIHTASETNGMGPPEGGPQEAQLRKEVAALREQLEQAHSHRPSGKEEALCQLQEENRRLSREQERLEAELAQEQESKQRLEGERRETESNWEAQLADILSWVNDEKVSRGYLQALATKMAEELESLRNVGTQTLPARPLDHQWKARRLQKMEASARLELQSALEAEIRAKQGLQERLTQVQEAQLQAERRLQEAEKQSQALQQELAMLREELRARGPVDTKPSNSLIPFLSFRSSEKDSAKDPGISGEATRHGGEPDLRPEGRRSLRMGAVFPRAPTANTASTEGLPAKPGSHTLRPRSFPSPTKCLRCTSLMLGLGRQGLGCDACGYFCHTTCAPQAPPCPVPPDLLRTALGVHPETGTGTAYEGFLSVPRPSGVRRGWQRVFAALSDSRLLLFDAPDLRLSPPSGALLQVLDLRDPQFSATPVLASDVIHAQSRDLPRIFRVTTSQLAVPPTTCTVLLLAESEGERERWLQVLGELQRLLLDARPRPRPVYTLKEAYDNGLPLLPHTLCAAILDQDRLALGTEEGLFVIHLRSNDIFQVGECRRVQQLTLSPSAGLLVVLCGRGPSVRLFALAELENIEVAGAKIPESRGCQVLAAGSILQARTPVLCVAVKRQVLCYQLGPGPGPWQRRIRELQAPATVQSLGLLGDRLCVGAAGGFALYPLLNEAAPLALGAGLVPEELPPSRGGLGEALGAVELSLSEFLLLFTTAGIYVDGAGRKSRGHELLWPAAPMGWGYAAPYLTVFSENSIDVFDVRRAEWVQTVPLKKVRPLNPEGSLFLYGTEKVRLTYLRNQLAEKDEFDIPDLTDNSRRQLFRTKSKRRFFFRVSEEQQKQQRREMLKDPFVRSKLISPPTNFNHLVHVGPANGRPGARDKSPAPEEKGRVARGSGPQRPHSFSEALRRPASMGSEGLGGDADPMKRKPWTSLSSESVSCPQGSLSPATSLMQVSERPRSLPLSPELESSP

[6] = biological target: T3, Thyroid hormone receptor-associated protein 3 (Homo sapiens, UniProt Q9Y2W1)
T3 sequence (Q9Y2W1 whole entry): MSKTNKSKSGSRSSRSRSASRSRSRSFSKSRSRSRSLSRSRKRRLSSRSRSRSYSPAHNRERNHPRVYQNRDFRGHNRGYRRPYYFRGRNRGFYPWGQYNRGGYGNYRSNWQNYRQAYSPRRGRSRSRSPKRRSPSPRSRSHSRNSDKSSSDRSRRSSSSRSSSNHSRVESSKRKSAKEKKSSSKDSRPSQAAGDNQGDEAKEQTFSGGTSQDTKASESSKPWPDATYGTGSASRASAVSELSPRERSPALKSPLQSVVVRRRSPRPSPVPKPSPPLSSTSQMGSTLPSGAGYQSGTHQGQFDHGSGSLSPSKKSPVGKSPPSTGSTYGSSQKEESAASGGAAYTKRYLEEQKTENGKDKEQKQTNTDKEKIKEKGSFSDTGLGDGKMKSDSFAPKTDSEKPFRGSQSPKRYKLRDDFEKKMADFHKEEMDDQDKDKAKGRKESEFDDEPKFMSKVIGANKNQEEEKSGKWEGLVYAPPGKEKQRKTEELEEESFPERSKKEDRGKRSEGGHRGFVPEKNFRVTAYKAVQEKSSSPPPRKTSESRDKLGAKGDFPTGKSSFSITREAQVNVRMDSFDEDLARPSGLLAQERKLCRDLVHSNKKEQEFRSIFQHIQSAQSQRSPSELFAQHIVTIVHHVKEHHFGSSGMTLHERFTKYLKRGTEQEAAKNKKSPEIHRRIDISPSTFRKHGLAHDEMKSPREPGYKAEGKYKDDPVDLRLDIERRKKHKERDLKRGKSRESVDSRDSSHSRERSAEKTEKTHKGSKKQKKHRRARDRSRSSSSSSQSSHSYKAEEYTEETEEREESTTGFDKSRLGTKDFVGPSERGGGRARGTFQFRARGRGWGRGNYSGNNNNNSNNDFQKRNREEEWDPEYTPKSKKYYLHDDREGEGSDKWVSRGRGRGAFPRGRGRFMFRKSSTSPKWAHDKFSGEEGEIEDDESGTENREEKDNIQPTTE
Further: in the data inactive means no Kd found up to 30 µM.

Guanine nucleotide-binding protein G(i) subunit alpha-2, sequence (P04899 whole entry): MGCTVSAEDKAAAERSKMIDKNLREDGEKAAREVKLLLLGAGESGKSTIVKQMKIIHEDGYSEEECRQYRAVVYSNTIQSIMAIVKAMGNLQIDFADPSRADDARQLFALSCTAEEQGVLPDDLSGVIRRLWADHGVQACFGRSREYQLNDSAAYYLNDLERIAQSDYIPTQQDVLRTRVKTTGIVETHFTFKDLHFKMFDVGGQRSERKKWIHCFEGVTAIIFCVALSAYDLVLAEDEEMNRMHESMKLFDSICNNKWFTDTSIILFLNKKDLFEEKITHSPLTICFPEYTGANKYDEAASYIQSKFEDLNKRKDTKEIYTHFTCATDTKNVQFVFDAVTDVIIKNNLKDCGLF

Row | Kd [1] | Kd [2] | Kd [3] | Kd [4] | Kd [5] | Kd [6] | Structure (SMILES)
1 | > 30 µM (inactive) | > 30 µM (inactive) | > 30 µM (inactive) | > 30 µM (inactive) | > 30 µM (inactive) | > 30 µM (inactive) | COC(=O)N[C@@H](C)CNc1nccc(-c2cn(C(C)C)nc2-c2cc(Cl)cc(NS(C)(=O)=O)c2F)n1 [ENCORAFENIB]
2 | > 30 µM (inactive) | > 30 µM (inactive) | > 30 µM (inactive) | > 30 µM (inactive) | > 30 µM (inactive) | > 30 µM (inactive) | O=C(O)[C@]1(Cc2cccc(Nc3nccs3)n2)CC[C@@H](Oc2cccc(Cl)c2F)CC1 [MK-5108]
3 | > 30 µM (inactive) | > 30 µM (inactive) | > 30 µM (inactive) | > 30 µM (inactive) | > 30 µM (inactive) | > 30 µM (inactive) | CC(=O)Nc1cccc(-n2c(=O)n(C3CC3)c(=O)c3c(Nc4ccc(I)cc4F)n(C)c(=O)c(C)c32)c1 [TRAMETINIB]
4 | > 30 µM (inactive) | > 30 µM (inactive) | > 30 µM (inactive) | > 30 µM (inactive) | – | – | C[C@@H](Nc1cc(F)cc(F)c1)c1cc(C(=O)N(C)C)cc2c(=O)cc(N3CCOCC3)oc12 [AZD-8186]
5 | > 30 µM (inactive) | > 30 µM (inactive) | – | – | > 30 µM (inactive) | > 30 µM (inactive) | CCc1cnn2c(NCc3ccc[n+]([O-])c3)cc(N3CCCC[C@H]3CCO)nc12 [DINACICLIB]
6 | – | > 30 µM (inactive) | > 30 µM (inactive) | > 30 µM (inactive) | > 30 µM (inactive) | – | CC(C)Nc1cc(-c2c[nH]c(C(=O)N[C@H](CO)c3cccc(Cl)c3)c2)c(Cl)cn1 [ULIXERTINIB]
7 | > 30 µM (inactive) | > 30 µM (inactive) | > 30 µM (inactive) | 0.002 µM (active) | > 30 µM (inactive) | > 30 µM (inactive) | Cn1cc(-c2ccc3nnc(C(F)(F)c4ccc5ncccc5c4)n3n2)cn1 [JNJ-38877605]
8 | > 30 µM (inactive) | > 30 µM (inactive) | > 30 µM (inactive) | > 30 µM (inactive) | > 30 µM (inactive) | – | C[C@@H]1CN(Cc2ccc(F)cc2)[C@@H](C)CN1C(=O)c1cc2c(C(=O)C(=O)N(C)C)cn(C)c2cc1Cl [TALMAPIMOD]
9 | – | > 30 µM (inactive) | 0.715 µM (active) | > 30 µM (inactive) | – | > 30 µM (inactive) | C1=C/COCc2cc(ccc2OCCN2CCCC2)Nc2nccc(n2)-c2cccc(c2)COC/1 [PACRITINIB]
10 | > 30 µM (inactive) | > 30 µM (inactive) | > 30 µM (inactive) | > 30 µM (inactive) | > 30 µM (inactive) | > 30 µM (inactive) | COc1cc(N2CCC(N3CCN(C)CC3)CC2)ccc1Nc1ncnc(Nc2ccccc2S(=O)(=O)C(C)C)n1 [ASP-3026]
11 | > 30 µM (inactive) | > 30 µM (inactive) | > 30 µM (inactive) | > 30 µM (inactive) | > 30 µM (inactive) | – | CNC(=O)CN1CCC(Oc2cc3c(Nc4cccc(Cl)c4F)ncnc3cc2OC)CC1 [SAPITINIB]
12 | > 30 µM (inactive) | > 30 µM (inactive) | > 30 µM (inactive) | – | – | > 30 µM (inactive) | Cc1ccc(S(=O)(=O)Nc2nc3ccccc3nc2Nc2ccc3nsnc3c2)cc1
13 | > 30 µM (inactive) | > 30 µM (inactive) | > 30 µM (inactive) | > 30 µM (inactive) | > 30 µM (inactive) | – | N[C@@H]1CCCN(c2c(/C=C3\SC(=O)NC3=O)cccc2-c2ccccc2)C1
14 | > 30 µM (inactive) | > 30 µM (inactive) | > 30 µM (inactive) | – | > 30 µM (inactive) | > 30 µM (inactive) | COc1cc2nccc(Oc3ccc(NC(=O)Nc4cc(C)on4)c(Cl)c3)c2cc1OC [TIVOZANIB]
15 | – | > 30 µM (inactive) | > 30 µM (inactive) | > 30 µM (inactive) | > 30 µM (inactive) | > 30 µM (inactive) | COc1cc(CCc2cc(NC(=O)c3ccc(N4C[C@@H](C)N[C@@H](C)C4)cc3)n[nH]2)cc(OC)c1 [AZD-4547]
16 | > 30 µM (inactive) | > 30 µM (inactive) | > 30 µM (inactive) | – | > 30 µM (inactive) | > 30 µM (inactive) | COCCNCc1ccc(-c2cc3nccc(Oc4ccc(NC(=S)NC(=O)Cc5ccc(F)cc5)cc4F)c3s2)nc1 [GLESATINIB]
17 | > 30 µM (inactive) | > 30 µM (inactive) | > 30 µM (inactive) | > 30 µM (inactive) | > 30 µM (inactive) | – | CN(C)C(=O)c1cc2cnc(Nc3ccc(N4CCNCC4)cn3)nc2n1C1CCCC1 [RIBOCICLIB]

Row | Structure (SMILES) | Kd [1] | Kd [2] | Kd [3] | Kd [4] | Kd [5] | Kd [6]
18 | Cc1cc(-c2cc(O)ccc2Cl)cc2nnc(Nc3ccc(OCCN4CCCC4)cc3)nc12 | – | > 30 µM (inactive) | > 30 µM (inactive) | > 30 µM (inactive) | > 30 µM (inactive) | –
19 | C=CC(=O)N1CCC(Oc2cc3c(Nc4ccc(Cl)c(Cl)c4F)ncnc3cc2OC)CC1 [POZIOTINIB] | > 30 µM (inactive) | > 30 µM (inactive) | > 30 µM (inactive) | 0.794 µM | – | –
20 | O=C(Nc1cccc(Cl)c1)Nc1ncc(CCNc2ncnc3ccsc23)s1 [SNS-314] | > 30 µM (inactive) | > 30 µM (inactive) | – | – | > 30 µM (inactive) | > 30 µM (inactive)
21 | CN1CC[C@@H](c2c(O)cc(O)c3c(=O)cc(-c4ccccc4Cl)oc23)[C@@H]1CO | – | 0.024 µM | > 30 µM (inactive) | 6.67 µM | – | > 30 µM (inactive)
22 | O=C(c1ccc(F)c(F)c1Nc1ccc(I)cc1F)N1CC(O)([C@@H]2CCCCN2)C1 [COBIMETINIB] | – | > 30 µM (inactive) | > 30 µM (inactive) | > 30 µM (inactive) | – | > 30 µM (inactive)
23 | COC(=O)[C@@]1(O)C[C@H]2O[C@]1(C)n1c3ccccc3c3c4c(c5c6ccccc6n2c5c31)C(=O)NC4 [K-252A] | – | > 30 µM (inactive) | 0.494 µM (active) | > 30 µM (inactive) | > 30 µM (inactive) | > 30 µM (inactive)
